{
  "source": "patent US20250325491A1",
  "about": "“POLYVALENT MOLECULE BASED LIPID NANOPARTICLES FOR NUCLEIC ACID DELIVERY” (Bio-TRIP B.V., priority 2022, published 2025)",
  "key": {"[1]": {"test": "siRNA retention by Quant-iT RiboGreen assay", "format": "physicochemical", "settings": "A2 siRNA-aNPs with variations in N/P, tri-caprylin content, cholesterol content and type of phospholipid (FIG. 13); in most cases", "procedure": "The Quant-iT RiboGreen assay (Thermo Fisher) was used to quantify the amount of siRNA loaded inside the formulated particles. The assay was performed using a black 96-well plate. The formulation sample with a theoretical siRNA concentration of 133.3 μg/mL, was diluted 200 times in TE buffer (10 mM Tris-HCl, 1 mM, EDTA, pH 7.5 in DEPC-treated water) and with a TE buffer containing 2% Triton™ X-100, in a black 96-well plate to a total volume of 100 μl. The Triton detergent will disrupt the lipid-based nanoparticles; therefore, all siRNA (retained plus unretained) becomes accessible for the Quant-iT RiboGreen reagent. Controls of siRNA of known concentration (28.6 μg/mL) were diluted 53.3 times in both TE buffer and TE buffer containing 2% Triton in a 96-well plate to a total volume of 100 μl. Next, RiboGreen reagent was diluted 200 times with TE buffer and with TE buffer containing Triton. 100 μl of this dilution was added to each well containing sample or control to bring the total volume in the plate to 200 μl. Subsequently, the samples' fluorescence was measured on a Tecan Spark® microplate reader at an excitation wavelength of 480 nm and emission wavelength of 520 nm.\nThe recovery of siRNA was determined as:\nThe siRNA retention=recovery×entrapment."}, "RAW 264.7 cell line": {"tested_on": "RAW 264.7 cell line", "test": "MTS cytotoxicity assay", "format": "cell-based", "settings": "RAW 264.7 cell line exposed to siRNA-aNPs with increasing amounts of the polyvalent molecule (FIG. 10)", "procedure": "MTS assays were carried out on multiple apolipoprotein nanoparticles (aNPs) of the invention. These assays were executed in line with protocols that are known in the art."}, "C57BL/6 mice": {"tested_on": "C57BL/6 mice", "test": "In vivo Firefly luciferase expression", "settings": "0.5 mg/kg Firefly luciferase mRNA in aNP, bolus injection, 16 hours, two animals (FIG. 16)", "procedure": "After 16 hours, the animals were sacrificed and the liver, spleen and femur collected. Organs were processed to yield single cell suspensions. 1/10th of the liver was cut into small pieces, incubated for 15 min, 37° C., 50 RPM with 5 mL liberase solution. Next, the digested liver was put through a 70 μm strainer and collected in a 50 mL falcon tube. After washing with 1×PBS, the cells was resuspended in 15 mL 1×PBS. 1/10th of the spleen was cut into small pieces and put through a 70 μm strainer and collected in a 50 mL falcon tube. After washing with 1×PBS, 1 mL of lysis buffer (BD Pharm Lyse™, cat #555899, diluted 10 times in diH2O) was added and incubated for 4 minute at room temperature. The cells were washed with 1×PBS and resuspended in 15 mL 1×PBS. Both ends of the femur were broken. The bone marrow cells were flushed from the inside of the bone with 10 mL 1×PBS through a 70 μm strainer and collected in a 50 mL falcon tube. The cells were centrifugated and 1 mL lysis buffer (BD Pharm Lyse™, cat #555899, diluted 10 times in diH2O) was added to the pellet and incubated for 1 minute at room temperature. […] All cell suspensions were counted and 500000 cells were seeded in a V-bottom plate. […] 40 μL was transferred to a white 96-well plate and luminescence was measured using the following settings: Settle time: 1000 ms; Integration time: 500 ms; Open filter."}},
  "data": [
    {"smiles": "CCCCCCCCOC(=O)CCN(CCCN(CCCCN(CCCN(CCC(=O)OCCCCCCCC)CCC(=O)OCCCCCCCC)CCCN(CCC(=O)OCCCCCCCC)CCC(=O)OCCCCCCCC)CCCN(CCC(=O)OCCCCCCCC)CCC(=O)OCCCCCCCC)CCC(=O)OCCCCCCCC", "note": "[Example A2, G1-ACR-nC8-8]", "values": [
      {"measurement": "siRNA retention (Ribogreen assay)", "setting": "[1]", "result": "high siRNA retention"},
      {"measurement": "cytotoxicity (MTS assay)", "setting": "RAW 264.7 cell line", "result": "do not exercise cytotoxicity"},
      {"measurement": "Luminescence intensity of single cell suspensions from liver, spleen and bone marrow (tissue targeting)", "setting": "C57BL/6 mice", "result": "target spleen and bone marrow tissue efficiently"}
    ]}
  ]
}
